Measurements published in ChEMBL document CHEMBL1201862, “PubChem BioAssay data set” (2004).
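48-hour exposure; five concentrations; linearly interpolated endpoints. GI50 marks 50% less growth.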 The source made the active and inactive calls. Cut-off read from the data, not from the text of the source: active = GI50 up to about 1.1 µM and inactive = higher.

Tests used:
Assay in all cases: inhibition of tumour cell growth, NCI panel, 48 h
HT-29 = system: HT-29
SK-MEL-28 = system: SK-MEL-28
RPMI-8226 = system: RPMI-8226
NCI-H522 = system: NCI-H522
SK-OV-3 = system: SK-OV-3
KM12 = system: KM12
HCT-15 = system: HCT-15
OVCAR-3 = system: OVCAR-3
K562 = system: K562
UACC-257 = system: UACC-257
SF-268 = system: SF-268
RXF 393 = system: RXF 393
NCI-H460 = system: NCI-H460
NCI-H23 = system: NCI-H23
MCF7 = system: MCF7
SNB-19 = system: SNB-19
SNB-75 = system: SNB-75
CCRF-CEM = system: CCRF-CEM
MDA-N = system: MDA-N
BT-549 = system: BT-549

| SMILES | GI50 (HT-29) | GI50 (SK-MEL-28) | GI50 (RPMI-8226) | GI50 (NCI-H522) | GI50 (SK-OV-3) | GI50 (KM12) | GI50 (HCT-15) | GI50 (OVCAR-3) | GI50 (K562) | GI50 (UACC-257) | GI50 (SF-268) | GI50 (RXF 393) | GI50 (NCI-H460) | GI50 (NCI-H23) | GI50 (MCF7) | GI50 (SNB-19) | GI50 (SNB-75) | GI50 (CCRF-CEM) | GI50 (MDA-N) | GI50 (BT-549) |
| --- | --- | --- | --- | --- | --- | --- | --- | --- | --- | --- | --- | --- | --- | --- | --- | --- | --- | --- | --- | --- |
| COCCN(CCNC(=O)c1cccc2c(N)c3cccc(C)c3nc12)CCOC | 0.558 µM (active) | 7.35 µM (inactive) | 1.12 µM (active) | 0.165 µM (active) | 5.16 µM (inactive) | 0.83 µM (active) | 1.82 µM | 2 µM (inactive) | 0.449 µM (active) | 4.63 µM (inactive) | 0.35 µM (active) | 1.93 µM (inactive) | 0.302 µM (active) | 0.78 µM (active) | 0.136 µM (active) | 2.48 µM (inactive) | 1.17 µM (inactive) | 1.14 µM (inactive) | 0.875 µM (active) | 5.7 µM (inactive) |
| Cn1c(=O)c2c(nc3n(C)c(=O)c4ccccc4n23)n(C)c1=O | 75.3 µM (inactive) | > 100 µM (inactive) | 20.7 µM (inactive) | 25.1 µM (inactive) | 37.8 µM (inactive) | 53.6 µM (inactive) | 35.1 µM | > 100 µM (inactive) | > 67 µM (inactive) | > 100 µM (inactive) | 68.5 µM (inactive) | > 61.8 µM (inactive) | 6.93 µM (inactive) | 40.4 µM (inactive) | 17.9 µM (inactive) | 25.8 µM (inactive) | 40.1 µM (inactive) | 13.5 µM (inactive) | > 100 µM (inactive) | > 80.4 µM (inactive) |
| C1CN2CCNCCN(CCN1)CC2 | > 100 µM (inactive) | > 100 µM (inactive) | > 100 µM (inactive) | > 100 µM (inactive) | > 100 µM (inactive) | > 100 µM (inactive) | > 100 µM | > 100 µM (inactive) | > 100 µM (inactive) | > 100 µM (inactive) | > 100 µM (inactive) | > 100 µM (inactive) | > 100 µM (inactive) | > 100 µM (inactive) | > 100 µM (inactive) | > 100 µM (inactive) | > 100 µM (inactive) | 3.9 µM (inactive) | > 100 µM (inactive) | > 100 µM (inactive) |
| CC/C=C\C=C/C(=O)N/C=C/CCC | 78.3 µM (inactive) | > 100 µM (inactive) | 40.2 µM (inactive) | 17.5 µM (inactive) | > 100 µM (inactive) | > 100 µM (inactive) | > 100 µM | 58.3 µM (inactive) | > 100 µM (inactive) | > 100 µM (inactive) | > 100 µM (inactive) | > 100 µM (inactive) | > 100 µM (inactive) | > 100 µM (inactive) | 78.3 µM (inactive) | > 100 µM (inactive) | > 100 µM (inactive) | 4.27 µM (inactive) | > 100 µM (inactive) | > 100 µM (inactive) |
| Clc1ccc(COC(Cn2ccnc2)c2ccc(Cl)cc2Cl)cc1 (stereo not given) [ECONAZOLE NITRATE] | 8.49 µM (inactive) | 14.8 µM (inactive) | 4.22 µM (inactive) | 8.24 µM (inactive) | 19.7 µM (inactive) | 12.1 µM (inactive) | 12.8 µM | 11.5 µM (inactive) | 4.62 µM (inactive) | 10.4 µM (inactive) | 14.7 µM (inactive) | 14.1 µM (inactive) | 10.7 µM (inactive) | 13.2 µM (inactive) | 8.26 µM (inactive) | 14.9 µM (inactive) | 15.6 µM (inactive) | 5.87 µM (inactive) | 11.9 µM (inactive) | 15.2 µM (inactive) |
| CCC1(CC)N=C(C(F)(F)F)c2cc(C(=O)C(F)(F)F)c3ccccc3c2N1 | 3.7 µM (inactive) | 8.26 µM (inactive) | 2.58 µM (inactive) | 3.94 µM (inactive) | 17.7 µM (inactive) | 3.99 µM (inactive) | 4.22 µM | 2.73 µM (inactive) | 3.72 µM (inactive) | 7.8 µM (inactive) | 8.43 µM (inactive) | 3.15 µM (inactive) | 4.16 µM (inactive) | 3.24 µM (inactive) | 3.77 µM (inactive) | 5.15 µM (inactive) | 4.2 µM (inactive) | 3.67 µM (inactive) | 3.15 µM (inactive) | 5.87 µM (inactive) |
| Cc1ccc([N+](=O)[O-])cc1S(=O)(=O)Nc1ccc(C2=NN(S(=O)(=O)c3cc([N+](=O)[O-])ccc3C)C(c3ccccc3)C2)cc1 (stereo not given) | 33.5 µM (inactive) | 82.8 µM (inactive) | 22.3 µM (inactive) | 15.7 µM (inactive) | 27.4 µM (inactive) | 34.9 µM (inactive) | 30.9 µM | 26 µM (inactive) | 30.1 µM (inactive) | 24.8 µM (inactive) | 17.6 µM (inactive) | 36.6 µM (inactive) | 21.6 µM (inactive) | 24.2 µM (inactive) | 30.8 µM (inactive) | 36.4 µM (inactive) | 64.6 µM (inactive) | 36.1 µM (inactive) | 30.1 µM (inactive) | 21.8 µM (inactive) |
